# Test system: Candida albicans
# Experiment: in vivo evaluation in mice inoculated with Candida albicans (protection against lethal infection, PD50)
# Design: unit not given beside the values
# Settings: oral, dose level giving 50% protection against the lethal effect of the infection
# Description: The in vivo evaluation of the compounds can be carried out at a series of dose levels by intraperitoneal or intravenous injection or by oral administration, to mice which are inoculated with a strain of Candida albicans. Untreated mice die within 48 hours and the dose level at which the compound provides 50% protection against the lethal effect of the infection (PDSO) is noted.
# Activity Data in mice (oral PD50 values)
row,Compound,PD50
1,"Clc1ccc(C(Cl)(Cn2cncn2)Cn2cncn2)c(Cl)c1 [Product of Example 1, 1,3-Bis-(1H-1,2,4-triazol-1-yl)-2-chloro-2-(2,4-dichlorophenyl) propane]",0.1
2,"Clc1ccc(C(Br)(Cn2cncn2)Cn2cncn2)c(Cl)c1 [Product of Example 2, 1,3-Bis(lH-1,2,4-triazol-1-yl)-2-bromo-2-(2,4-dichlorophenyl) propane]",0.03
3,"Fc1ccc(C(Br)(Cn2cncn2)Cn2cncn2)c(F)c1 [Product of Example 3, 1,3-Bis(1H-1,2,4-triazol-1-yl)-2-bromo-2-(2,4-difluorophenyl)propane]",0.3
4,"FC(Cn1cncn1)(Cn1cncn1)c1ccc(Cl)cc1Cl [Product of Example 4, 1,3-Bis(1H-1,2,4-triazol-1-yl)-2-(2,4-dichlorophenyl)-2-fluoro-propane]",1.8
5,Fc1cc(C(Cl)(Cn2cncn2)Cn2cncn2)c(F)cc1Br [Product of Example 5],1.6
6,Fc1ccc(C(Cl)(Cn2cncn2)Cn2cncn2)c(F)c1 [Product of Example 6],0.9
7,ClC(Cn1cncn1)(Cn1cncn1)c1ccc(I)cc1 [Product of Example 7],0.2
8,Clc1ccc(C(Cl)(Cn2cncn2)Cn2cncn2)cc1 [Product of Example 8],0.3
9,"Clc1ccc(C(Cl)(Cn2cncn2)Cn2cncn2)nc1 [Product of Example 9, 1,3-Bis(1A-1,2,4-triazol-1-yl)-2-chloro-2-(5-chloropyrid-2-yl)propane]",0.2
